{"source": "patent US20010027248A1", "about": "“Novel receptor” (SmithKline Beecham p.l.c., priority 1994, published 2001)", "key": {"[1]": {"test_system": "novel receptor", "test": "Binding of known anticonvulsant compounds to the novel receptor", "text": "Alternatively, the binding affinities of non-radio-labelled test compounds may be established by measuring the amount of displacement of a radio-labelled compound which is known to bind to the receptor such as compound (A) and (B) and other compounds mentioned or covered by the aforementioned patents or applications, using conventional techniques."}, "[2]": {"biological_target": "novel receptor (rat forebrain tissue)", "test": "Radioligand saturation binding to the novel receptor in rat forebrain tissue homogenate", "settings": "calculated from specific binding over a range of radioligand concentrations, read-out: Kd (dissociation constant)", "description": "Adult male Wistar rats were killed and brains removed by dissection. Whole forebrain tissue was dissected out and homogenised in a buffered aqueous medium. The homogenised tissue was washed by centrifugation and resuspended in the same buffer. After centrifugation the resuspended tissue was either used fresh or stored frozen for periods of up to 3 months or more before use.\nAliquot of tissue prepared as above at a concentration of 1-10 mg protein/ml were mixed with aliquots of [^3H]-compound A dissolved in buffered medium ([…] HEPES, pH7.4). The final concentration of [^3H] compound A in the mixture was in the range of 20-50 nM. The mixture was incubated at room temperature for about 1 hour. [^3H]-compound A bound to the tissue was then separated from unbound [^3H]-compound A by filtration. This filtration was through Whatman glass fibre filters (GF/B or GF/C). The filters were then washed rapidly with ice-cold buffered medium (50 mM HEPES, pH7.4). The amount of radioactivity bound to the tissue trapped on the filters was measured by addition of liquid scintillation cocktail filters followed by counting in a liquid scintillation counter. […]"}}, "data": [{"smiles": "CCC1(C)CC(=O)NC1=O", "note": "(stereo not drawn) [ethosuximide]", "values": [{"measurement": "binding to the novel receptor", "setting": "[1]", "value": "do not bind"}]}, {"smiles": "CN1C(=O)CN=C(c2ccccc2)c2cc(Cl)ccc21", "note": "[diazepam]", "values": [{"measurement": "binding to the novel receptor", "setting": "[1]", "value": "do not bind"}]}, {"smiles": "NC(=O)N1c2ccccc2C=Cc2ccccc21", "note": "[carbamazepine]", "values": [{"measurement": "binding to the novel receptor", "setting": "[1]", "value": "do not bind"}]}, {"smiles": "CCCC(C)C1(CC)C(=O)NC(=O)NC1=O", "note": "(stereo not drawn) [pentobarbitone]", "values": [{"measurement": "binding to the novel receptor", "setting": "[1]", "value": "do not bind"}]}, {"smiles": "O=C1NC(=O)C(c2ccccc2)(c2ccccc2)N1", "note": "[phenytoin]", "values": [{"measurement": "binding to the novel receptor", "setting": "[1]", "value": "do not bind"}]}, {"smiles": "CC(=O)c1ccc2c(c1)[C@H](NC(=O)c1ccc(F)cc1)[C@@H](O)C(C)(C)O2", "note": "[compound A, trans-(+)-6-Acetyl-4S-(4-fluorobenzolamino)-3,4-dihydro-2,2-dimethyl-2H-1-benzopyran-3R-ol]", "values": [{"measurement": "Kd", "setting": "[2]", "value": 40, "unit": "nM"}]}, {"smiles": "Nc1nnc(-c2cccc(Cl)c2Cl)c(N)n1", "note": "[lamotrigine]", "values": [{"measurement": "binding to the novel receptor", "setting": "[1]", "value": "do not bind"}]}, {"smiles": "NCC1(CC(=O)O)CCCCC1", "note": "[gabapentin]", "values": [{"measurement": "binding to the novel receptor", "setting": "[1]", "value": "do not bind"}]}, {"smiles": "C=CC(N)CCC(=O)O", "note": "(stereo not drawn) [vigabatrin]", "values": [{"measurement": "binding to the novel receptor", "setting": "[1]", "value": "do not bind"}]}]}
